Results: US4594340A, “25,26-dehydro-1α,24R-dihydroxycholecalciferol and 25,26-dehydro-1α,24S-dihydroxycholecalciferol and the epimeric mixture” (Hoffmann-La Roche Inc., priority 1984, dated 1986)
Like-named read-outs stand apart in the source and are kept apart here.

How the values were obtained:
[1] = Antirachitogenic increase in tibia ash in chicks on vitamin D-deficient diet; assay type: in vivo, chick (White Leghorn cockerels)
Method: **Oneday-old White Leghorn cockerels were placed on a vitamin Ddeficient
diet which contained 1% calcium and 0.7% phosphorus and were housed under
ultravioletfree lighting (General Electric F40G0 gold fluorescent lights)
The test compound was dissolved in propylene glycol and administered
orally in a volume of 0.2 ml/day for 21 consecutive days. Controls were
treated with vehicle alone. Chicks were autopsied on the day after the […]

HL-60 cells [2] = assay: Anti-proliferative effect on HL-60 cells (Coulter Counter enumeration); assay type: cell-based, human (patient); conditions: for inhibition at 0.015 µM / inhibition at 0.045 µM / inhibition at 0.09 µM: Homo sapiens, read-out: percent reduction of cell numbers relative to control
Method: (§1) Cultures of HL-60 cells were established in the absence (control) or presence of various concentrations of the test compound. After a 4-day incubation period, the cultures were evaluated for proliferation of tumor cells, tumor cell viability, and cellular differentiation. Proliferation was assessed by directly enumerating the increased number of tumor cells resulting from incubation. Viability was determined by dye exclusion technique to learn whether any of the compounds were lethal to cultured HL-60 cells. Cellular differentiation was evaluated by determining the number of cells which had acquired the enzymes necessary to support a respiratory burst and the functional ability to phagocytose (bind/internalize) particulate material from their environment; both activities being characteristic of mature macrophages and granulocytes,
(§2) Tissure culture medium used in these experiments was RPM1-1640 supplemented prior to use to 10% v/v with fetal bovine serum (heat inactivated at 56° for 30 minutes), to 130 units per ml with penicillin and 130 μg per ml with streptomycin, and to an additional 1.6 millimolar with L-glutamine.
(§3) Experimental compounds were dissolved in sufficient ethanol to yield stock solutions of 1×10^-2 molar. Reduced lighting was employed when working with compounds and stock solutions were stored in the dark at -20° in an argon atmosphere. Compounds were diluted with tissue culture medium and added to flasks containing HL-60 cells to achieve the final concentrations described in each experiment.
(§4) The promyelocytic (HL-60) tumor cell line was derived from a patient with acute promyelocytic leukemia. HL-60 cells were maintained in liquid culture by serial weekly passage in tissue culture medium. In any experiment, three replicate flasks were incubated without compound (control) or in the presence of varying concentrations of compound. […]
Quantitation of proliferation was done by enumerating the number of HL-60 cells in each individual flasks (3 flasks per experimental point) using a model ZBI Coulter Counter. Results are shown as the number of cells per ml of tissue culture medium expressed as the mean±standard deviation and as percent reduction of cell number calculated according to the formula: [formula] Experimental cultures with the same or slightly greater cell numbers than control cultures are reported as zero percent reduction.

HL-60 cells [3] = assay: Differentiation of HL-60 cells by phagocytosis; assay type: cell-based, human (patient)
Method: as §1, with “After a 4-day incubation period, the cultures were evaluated for proliferation of tumor cells, tumor cell viability, and cellular differentiation.” left out
as §2, §3, §4
Quantitation of differentiated HL-60 cells on a functional basis was done by enumerating the number of cells in any sample which had acquired the ability to phagocytose (bind/internalize) particulate material from their environment, a characteristic of mature macrophages and granulocytes. Sufficient cells were pooled from replicate cultures, centrifuged at 200×g, washed once with serum-free tissue culture medium, and resuspended to 1×10^6 cells per ml in serum-free tissue culture medium. To a 1.0 ml sample in 12×75 mm tubes was added 0.1 ml of a 1:10 dilution from stock of fluorescent microspheres obtained as a gift from Dr. William Dreyer at the California Institute of Technology. Latex beads, yeast cells or red blood cells may also be used in place of fluorescent microsphere in this step. Cells and particle were mixed, incubated for 15 minutes in a 37° water bath, collected in a transfer pipet, and overlayed onto a 5 ml cushion of fetal bovine serum in a 15 ml conical culture tube. After centrifugation at 150×g for 8 minutes, the excess particulate (upper layer) was discarded as was the remainder of the serum cushion leaving only a cell pellet and cell-associated particulate. The resultant pellets were resuspended in 1.0 ml of tissue culture medium containing 10% fetal bovine serum, transferred to a hemacytometer, and evaluated microscopically using both ultraviolet and visible light sources. Undifferentiated and differentiated cells present in any sample were determined microscopically by surveying 200-400 cells per sample. Non-fluorescent cells, identified only by visible light, were judged to be undifferentiated. Generally, differentiated cells were intensely fluorescent clearly indicating extensive phagocytosis of particulate material. Results are expressed as the percentage of differentiated cells present in any sample as calculated according to the formula: [formula]

Which results are given for `C=C(C)[C@H](O)CC[C@@H](C)[C@H]1CC[C@H]2/C(=C/C=C3/C[C@@H](O)C[C@H](O)C3=C)CCC[C@]12C` [25,26-dehydro-1α,24R-dihydroxycholecalciferol]?
Antirachitogenic Increase in Tibia Ash in Chicks ([1]; 300 ng, orally, 21 consecutive days): 20%; potential for hypercalcemia ([1]; than for 1α,25-dihydroxycholecalciferol, as indicated by increase in tibia ash weight in chicks): much less; inhibition of proliferation of HL-60 cells (HL-60 cells [2]): inhibited by 25,26-dehydro-1α,24R-dihydroxycholecalciferol in a dose-dependent fashion; HL-60 Cells per ml (HL-60 cells [2]; 15 × 10^-9 molar (first line of that concentration), day 3): 12.0 ± 0.2 cells per ml (× 10^-4); HL-60 Cells per ml (HL-60 cells [2]; 15 × 10^-9 molar (first line of that concentration), day 4): 24.1 ± 1.0 cells per ml (× 10^-4); HL-60 Cells per ml (HL-60 cells [2]; 15 × 10^-9 molar (first line of that concentration), day 6): 113.0 ± 1.4 cells per ml (× 10^-4); HL-60 Cells per ml (HL-60 cells [2]; 15 × 10^-9 molar (second line), day 3): 12.0 ± 0.5 cells per ml (× 10^-4); HL-60 Cells per ml (HL-60 cells [2]; 15 × 10^-9 molar (second line), day 4): 22.0 ± 0.4 cells per ml (× 10^-4); HL-60 Cells per ml (HL-60 cells [2]; 15 × 10^-9 molar (second line), day 6): 71.4 ± 1.3 cells per ml (× 10^-4); HL-60 Cells per ml (HL-60 cells [2]; 45 × 10^-9 molar, day 3): 12.3 ± 0.2 cells per ml (× 10^-4); HL-60 Cells per ml (HL-60 cells [2]; 45 × 10^-9 molar, day 4): 19.0 ± 0.8 cells per ml (× 10^-4); HL-60 Cells per ml (HL-60 cells [2]; 45 × 10^-9 molar, day 6): 31.4 ± 0.5 cells per ml (× 10^-4); HL-60 Cells per ml (HL-60 cells [2]; 90 × 10^-9 molar, day 3): 11.8 ± 0.1 cells per ml (× 10^-4); HL-60 Cells per ml (HL-60 cells [2]; 90 × 10^-9 molar, day 4): 15.4 ± 0.9 cells per ml (× 10^-4); HL-60 Cells per ml (HL-60 cells [2]; 90 × 10^-9 molar, day 6): 21.4 ± 1.1 cells per ml (× 10^-4); inhibition at 0.015 µM (HL-60 cells [2]; HL-60, 72 h, 15 × 10^-9 molar (first line of that concentration), day 3): 0%; inhibition at 0.015 µM (HL-60 cells [2]; HL-60, 72 h, 15 × 10^-9 molar (second line), day 3): 0%; inhibition at 0.045 µM (HL-60 cells [2]; HL-60, 72 h, 45 × 10^-9 molar, day 3): 0%; inhibition at 0.09 µM (HL-60 cells [2]; HL-60, 72 h, 90 × 10^-9 molar, day 3): 0%; inhibition at 0.015 µM (HL-60 cells [2]; HL-60, 96 h, 15 × 10^-9 molar (first line of that concentration), day 4): 9%; inhibition at 0.015 µM (HL-60 cells [2]; HL-60, 96 h, 15 × 10^-9 molar (second line), day 4): 17%; inhibition at 0.045 µM (HL-60 cells [2]; HL-60, 96 h, 45 × 10^-9 molar, day 4): 28%; inhibition at 0.09 µM (HL-60 cells [2]; HL-60, 96 h, 90 × 10^-9 molar, day 4): 42%; inhibition at 0.015 µM (HL-60 cells [2]; HL-60, 144 h, 15 × 10^-9 molar (first line of that concentration), day 6): 11%; inhibition at 0.015 µM (HL-60 cells [2]; HL-60, 144 h, 15 × 10^-9 molar (second line), day 6): 44%; inhibition at 0.045 µM (HL-60 cells [2]; HL-60, 144 h, 45 × 10^-9 molar, day 6): 75%; inhibition at 0.09 µM (HL-60 cells [2]; HL-60, 144 h, 90 × 10^-9 molar, day 6): 83%; inhibition of proliferation detectable by cell enumeration as early as (HL-60 cells [2]; day of incubation): 4 days; % diff. (Phagocytosis) (HL-60 cells [3]; 5 × 10^-9 molar, day 3): 7%; diff. cells / total (Phagocytosis) (HL-60 cells [3]; 5 × 10^-9 molar, day 3): 24/329; % diff. (Phagocytosis) (HL-60 cells [3]; 5 × 10^-9 molar, day 4): 10%; diff. cells / total (Phagocytosis) (HL-60 cells [3]; 5 × 10^-9 molar, day 4): 22/223; % diff. (Phagocytosis) (HL-60 cells [3]; 5 × 10^-9 molar, day 6): 16%; diff. cells / total (Phagocytosis) (HL-60 cells [3]; 5 × 10^-9 molar, day 6): 45/290; % diff. (Phagocytosis) (HL-60 cells [3]; 15 × 10^-9 molar, day 3): 24%; diff. cells / total (Phagocytosis) (HL-60 cells [3]; 15 × 10^-9 molar, day 3): 76/324; % diff. (Phagocytosis) (HL-60 cells [3]; 15 × 10^-9 molar, day 4): 29%; diff. cells / total (Phagocytosis) (HL-60 cells [3]; 15 × 10^-9 molar, day 4): 96/332; % diff. (Phagocytosis) (HL-60 cells [3]; 15 × 10^-9 molar, day 6): 25%; diff. cells / total (Phagocytosis) (HL-60 cells [3]; 15 × 10^-9 molar, day 6): 83/333
